The results in this text go back to PMC5065625, “Structure-mechanism-based engineering of chemical regulators targeting distinct pathological factors in Alzheimer's disease” (Nature Communications, 2016).

The viability is the share of living cells, or the viability signal relative to a control. Low readings indicate a greater loss of cells, high ones better survival. As usually defined, the pKa is the pH at which an ionisable group is half protonated. High values mean a group that holds its proton tightly, low ones a group that gives up its proton readily.

Data set [1] concerns human neuroblastoma SK-N-BE(2)-M17 (M17) cells. Kind of data set: Cell viability (MTT assay), compounds with and without metal ions. It counts as cell-based. The following applies: with and without Cu(II) and Zn(II), up to 20 μM. Here is the method: (§1) The M17 cell line was purchased from the American Type Culture Collection (ATCC, Manassas, VA, USA). The cell line was maintained in media containing 50% minimum essential medium and 50% F12 (GIBCO, Grand Island, NY, USA), supplemented with 10% fetal bovine serum (Sigma), 100 U ml^−1 penicillin, and […] streptomycin (GIBCO). The cells were grown and maintained at 37 °C in a humidified atmosphere with 5% CO2. […] Cell viability upon treatment of compounds was determined using the MTT assay (Sigma). M17 cells were seeded in a 96-well plate (15,000 cells in 100 μl per well). The cells were treated with Aβ (20 μM) with or without CuCl2 or ZnCl2 (20 μM), followed by the addition of compounds (20 μM, 1% v/v final DMSO concentration), and incubated for 24 h. After incubation, 25 μl MTT (5 mg ml^−1 in phosphate buffered saline (PBS, pH 7.4, GIBCO) was added to each well and the plate was incubated for 4 h at 37 °C. Formazan produced by the cells was solubilized using an acidic solution of N,N-dimethylformamide (DMF, 50%, v/v aq) and SDS (20%, w/v) overnight at room temperature in the dark. The absorbance was measured at 600 nm using a microplate reader. Cell viability was calculated relative to cells containing an equivalent amount of DMSO.
(Tetrazolium dyes change colour on reduction, which living cells bring about.)

For data set [2], the system named is Aβ40/Aβ42 toxicity in M17 cells. Kind of data set: Cell viability (MTT assay), compounds with Aβ and metal–Aβ. The following applies: compound 20 μM, Aβ40/Aβ42 20 μM, CuCl2 or ZnCl2 20 μM, 24 h. It counts as cell-based, human. As for the experimental part: as §1
The nature of data set [3]: Cell viability (MTT assay), compounds with and without metal ions. It counts as cell-based, human. The following applies: human, SK-N-BE(2)-M17 (M17) neuroblastoma cells; M17 cells, in the absence of Cu(II), 48 and 72 h. As for the experimental part:
as §1

Data set [4] in a line: Solubility. It counts as physicochemical.
The nature of data set [5]: UV–vis variable-pH titration (pKa). The data set is classed as physicochemical. The following applies: aqueous solution (10 mM NaOH, 100 mM NaCl) titrated with HCl, 100 μM. As for the experimental part:
(§2) The pKa value for 2 was determined by UV–vis variable-pH titrations as previously reported. To establish the pKa value, a solution (10 mM NaOH, pH 12, 100 mM NaCl) of 2 (100 μM) was titrated with small amounts of HCl. At least 30 spectra were recorded in the range of pH 2–10. Similarly, a solution containing CuCl2 and 2 (50 μM) in a metal to ligand ratio of 1:2 was titrated with small additions of HCl and at least 30 spectra were recorded over the range pH 2–7. The acidity and stability constants were calculated by using the HypSpec program (Protonic Software, UK)[56]. Speciation diagrams were modelled in the HySS2009 program (Protonic Software)[57].

Data set [6] in a line: UV–vis variable-pH titration of Cu(II)–2 (binding affinity). Here is the method:
as §2

`Nc1ccc(NCc2ccccn2)cc1` [compound 1, N^1-(pyridin-2-ylmethyl)benzene-1,4-diamine]: the “Toxicity in M17 cells” value in data set [1] is “nontoxic”. The “Toxicity induced by metal–Aβ” value in data set [2] is “diminished”.

Regarding `CN(C)c1ccc(NCc2ccc[nH]2)cc1` [compound 4, N^1-((1H-pyrrol-2-yl)methyl)-N^4,N^4-dimethylbenzene-1,4-diamine], in data set [3], the viability at up to 20 μM was ~60%. In addition, the “Solubility in the 2-deoxyribose assay buffer” value in data set [4] (phosphate buffer pH 7.2) is “poor solubility under the assay conditions”.

Consider `COc1cc(NCc2ccccn2)cc(OC)c1` [compound 2, 3,5-dimethoxy-N-(pyridin-2-ylmethyl)aniline], for which the “Toxicity in M17 cells” value in data set [1] is recorded as “nontoxic”. Also, in data set [2], the “Toxicity induced by metal–Aβ” value is listed as “diminished”. In addition, the “Water solubility relative to 1” value in data set [4] was “much lower degrees of water solubility”. Further, the pKa in data set [5] was 5. In addition, the “logβ (Cu + L = CuL)” value in data set [6] (Cu(II):L = 1:2, [2] = 50 μM) is 5.6(8). The “Approximate dissociation constant for Cu(II), 1:1 complex” value in data set [6] (UV–vis variable-pH titrations) was “micromolar range”. Moreover, in data set [6] (pH 6.6), the “pCu (=−log[Cu(II)]free)” value was 6.24.
